Where a name gives a salt, the structure may show the parent alone.
Key:
[1] = system: HMLE-ZEB1 cells (CDH1prom-luc reporter, Dox-induced ZEB1 driven EMT); assay: Dual-Glo luciferase CDH1prom-luc reporter screen of LOPAC and bioactive lipid library; format: cell-based; details: ratio Firefly (CDH1prom-luc) / Renilla luciferase, normalized to DMSO = 1; primary screen
Excerpt: FIG. 1: Design of a cell-based reporter assay. Doxycycline (Dox)-induced ZEB1 driven EMT (HMLE-ZEB1 cells) was used to conduct high-throughput screen for identifying inhibitors of epithelial-mesenchymal transition.
A) Dual-Glo luciferase assay to test gene promoters that include CD44, CD166, CDH1 and SERPINE1 in Dox-induced HMLE-ZEB1 cells. Data are represented as ratio of mean Firefly luciferase (FF) and Renilla luciferase (Ren) readings; n=3. B) Dual-glo Luciferase assay of HMLE-ZEB1 screened with LOPAC library. Data are represented as ratio of mean Firefly luciferase (FF) and Renilla luciferase (Ren) readings, n=3. Hits are circled in red. C) Average Z-score of Dual-glo Luciferase assay in HMLE-ZEB1 cells screened with LOPAC library; n=4. D) Validation of screening hits by Dual-glo Luciferase assay in HMLE-ZEB1 screened with LOPAC library by primary and secondary screens. E) Hits from secondary screen validated at different concentrations 5, 1.66, 0.55, 0.18 and 0.06 μM. N=3 F) Validation of the screening hits by CDH1 gene expression. n=3. G) Top, Phase-contrast images of morphological changes of HMLE-ZEB1 cells in DMSO and Dox-treated cells in presence or absence of Kenpaullone (0.25 μM) (DMSO, Dox, Ken, and Dox+Ken). Scale represents 100 μm. Second, Immunofluorescence staining of epithelial marker E-Cadherin (ECAD) and mesenchymal marker Vimentin in DMSO, Dox, Ken and Dox+Ken treated cells. Scale represents 50 μm. Bottom, Fluorescence activated sorting analysis (FACS) of CD44 and CD24 staining in Dox induced HMLE-ZEB1 cells in presence or absence of Ken. Numbers within graph represent percentages of gated cells indicating CD44high CD24low (above) and CD44lowCD24high cells (below). H) TdTomato-labelled MCF7-SLUG+SOX9 cells that were injected orthotopically into the mammary fat pads and induced by Doxycycline (+Dox) to express SLUG and SOX9 to promote metastasis in shControl and shGSK3β cells. Top, Representative fluorescence images of whole-mount of lung and second, histology of lung sections. Scale bar represents 100 μm. Third, Tumors were stained for GSK3β and counterstained with hematoxylin. Scale bar represents 100 μm. Fourth, primary tumors were also stained for E-cadherin, Fibronectin and DAPI. Scale bar represents 50 μm. n=3-5 mice for each group. I) Total number of metastasis as counted from whole mount of lung in mice implanted with in shControl and shGSK3β cells. n=3-5 for each group. **P<0.01 and ***P<0.001 as determined by as determined by one-way ANOVA with Dunnet's multiple comparison test. All data are presented as mean+/−SEM. *P<0.05, **P<0.01, ***P<0.001 and ****P<0.0001, not significant (ns) as determined by unpaired two-tailed t-test unless otherwise stated.
FIG. 3: Identification of inhibitors of epithelial-mesenchymal transition from high-throughput screening of bioactive lipid library with the screening platform. A) Dual-glo Luciferase assay of HMLE-ZEB1 screened with bioactive lipid library. Data are represented as ratio of mean Firefly luciferase (FF) and Renilla luciferase (Ren) readings, n=3. Hits are circled in red. B) Average Z-score of Dual-glo Luciferase assay in HMLE-ZEB1 cells screened with bioactive lipid library; n=4. Compounds shown in red indicates top hits. C) Protein expression of EMT markers E-cadherin, Fibronectin Vimentin and Snail in DMSO and 4-OHT induced cells treated with and without Cay10603 (10 nM) in HMLE-TWIST. GAPDH was used as a loading control. D) (First)Morphological evidence and (second) Fluorescence activated sorting analysis (FACS) of CD44 and CD24 staining in DMSO, 4-OHT, CAY10603 and 4-OHT+CAY10603 treated cells. Numbers within graph represent percentages of gated cells indicating CD44highCD24low (above) and CD44lowCD24high cells (below). E) Representative bright-field images and quantification of DMSO,4-OHT, CAY,4-OHT+CAY treated cells as shown by of scratch wound migration assay before and after 6 h of scratch in presence or absence of 4-OHT-induced EMT. […]

[2] = system: MCF7-SLUG+SOX9 cells; assay: MCF7-SLUG+SOX9 orthotopic xenograft, EMT-dependent lung metastasis; format: in vivo, NSG mice
Excerpt: FIG. 3: Identification of inhibitors of epithelial-mesenchymal transition from high-throughput screening of bioactive lipid library with the screening platform. A) Dual-glo Luciferase assay of HMLE-ZEB1 screened with bioactive lipid library. Data are represented as ratio of mean Firefly luciferase (FF) and Renilla luciferase (Ren) readings, n=3. Hits are circled in red. B) Average Z-score of Dual-glo Luciferase assay in HMLE-ZEB1 cells screened with bioactive lipid library; n=4. Compounds shown in red indicates top hits. C) Protein expression of EMT markers E-cadherin, Fibronectin Vimentin and Snail in DMSO and 4-OHT induced cells treated with and without Cay10603 (10 nM) in HMLE-TWIST. GAPDH was used as a loading control. D) (First)Morphological evidence and (second) Fluorescence activated sorting analysis (FACS) of CD44 and CD24 staining in DMSO, 4-OHT, CAY10603 and 4-OHT+CAY10603 treated cells. Numbers within graph represent percentages of gated cells indicating CD44highCD24low (above) and CD44lowCD24high cells (below). E) Representative bright-field images and quantification of DMSO,4-OHT, CAY,4-OHT+CAY treated cells as shown by of scratch wound migration assay before and after 6 h of scratch in presence or absence of 4-OHT-induced EMT. Images were taken at 4× magnification. Scale bar represents 100 μm. F) (First) Representative images of whole-mount fluorescence lung image and (Second) histology of lung sections. Scale bar represents 100 μm. (Third)Tumors were stained for HDAC6 and counterstained with hematoxylin. Scale bar represents 100 μm. (Fourth) Primary tumors were also stained for E-cadherin, Fibronectin and DAPI. Scale bar represents 50 μm. n=4 mice for each group. G) Total number of metastasis as counted from whole mount of lung with −Dox, +Dox and ACY-1215+Dox treatment. n=3-4 for each group. **P<0.01 as determined by as determined by one-way ANOVA with Dunnet's multiple comparison test. All data are presented as mean+/−SEM. *P<0.05, **P<0.01, ***P<0.001 and ****P<0.0001, not significant (ns) as determined by unpaired two-tailed t-test unless otherwise stated.
FIG. 4. Disruption of microtubule depolymerization through HDAC6 inhibition and GSK3β inhibition restricts EMT. A) Top, Phase-contrast images of morphological changes in DMSO and 4-OHT induced cells treated with Ken, ACY-1215 and combination of both in HMLE-TWIST. Arrows represent cells growing as epithelial clusters. Scale represents 100 μm. Second, Immunofluorescence staining of acetylated α-tubulin in DMSO, Ken+ACY-1215, 4-OHT, ACY-1215+4-OHT, Ken+4-OHT and Ken+ACY-1215+4-OHT treated cells. Scale represents 50 μm. (Third) Fluorescence activated sorting analysis (FACS) of CD44 and CD24 staining in DMSO, Ken+ACY-1215, 4-OHT, ACY-1215+4-OHT, Ken+4-OHT and Ken+ACY-1215+4-OHT treated cells. […] C) Quantification of protein expression for DMSO, Ken+ACY, 4-OHT, ACY+4-OHT, Ken+4-OHT and Ken+ACY+4-OHT treated HMLE-TWIST cells (n=3). […] E) Quantification of percentage area closure in DMSO, Ken+ACY-1215, 4-OHT, ACY-1215+4-OHT, Ken+4-OHT and Ken+ACY-1215+4-OHT treated HMLE-TWIST cells. Graph represents mean+/−SEM of n=4. *P<0.05 and **P<0.01 as determined by unpaired t-test (two-tailed) by Welch's correction. F) Total number of metastasis as counted from whole mount of lung in mice implanted with shControl and shGSK3β cells treated with ACY-1215 in presence or absence of Dox treatment (n=3-4). […]

[3] = system: HMLE-TWIST cells; assay: TWIST (4-OHT)-induced EMT: markers, morphology, CD44/CD24 FACS, acetylated tubulin; format: cell-based; details: 4-OHT induced HMLE-TWIST
Excerpt: (§1) FIG. 3: Identification of inhibitors of epithelial-mesenchymal transition from high-throughput screening of bioactive lipid library with the screening platform. A) Dual-glo Luciferase assay of HMLE-ZEB1 screened with bioactive lipid library. Data are represented as ratio of mean Firefly luciferase (FF) and Renilla luciferase (Ren) readings, n=3. Hits are circled in red. B) Average Z-score of Dual-glo Luciferase assay in HMLE-ZEB1 cells screened with bioactive lipid library; n=4. Compounds shown in red indicates top hits. C) Protein expression of EMT markers E-cadherin, Fibronectin Vimentin and Snail in DMSO and 4-OHT induced cells treated with and without Cay10603 (10 nM) in HMLE-TWIST. […] D) (First)Morphological evidence and (second) Fluorescence activated sorting analysis (FACS) of CD44 and CD24 staining in DMSO, 4-OHT, CAY10603 and 4-OHT+CAY10603 treated cells. […] E) Representative bright-field images and quantification of DMSO,4-OHT, CAY,4-OHT+CAY treated cells as shown by of scratch wound migration assay before and after 6 h of scratch in presence or absence of 4-OHT-induced EMT. […] F) (First) Representative images of whole-mount fluorescence lung image and (Second) histology of lung sections. […] All data are presented as mean+/−SEM. *P<0.05, **P<0.01, ***P<0.001 and ****P<0.0001, not significant (ns) as determined by unpaired two-tailed t-test unless otherwise stated. […]

[4] = system: HMLE-TWIST cells; assay: Scratch wound migration assay in 4-OHT-induced EMT; format: cell-based; details: 6 h after scratch
Excerpt: as §1

[5] = system: HMLE-ZEB1 cells; assay: Validation of ZEB1-induced EMT inhibition (morphology); format: cell-based; details: Dox-induced HMLE-ZEB1, Kenpaullone 0.25 μM
Excerpt: A) Dual-Glo luciferase assay to test gene promoters that include CD44, CD166, CDH1 and SERPINE1 in Dox-induced HMLE-ZEB1 cells. Data are represented as ratio of mean Firefly luciferase (FF) and Renilla luciferase (Ren) readings; n=3. B) Dual-glo Luciferase assay of HMLE-ZEB1 screened with LOPAC library. Data are represented as ratio of mean Firefly luciferase (FF) and Renilla luciferase (Ren) readings, n=3. Hits are circled in red. C) Average Z-score of Dual-glo Luciferase assay in HMLE-ZEB1 cells screened with LOPAC library; n=4. D) Validation of screening hits by Dual-glo Luciferase assay in HMLE-ZEB1 screened with LOPAC library by primary and secondary screens. […] Bottom, Fluorescence activated sorting analysis (FACS) of CD44 and CD24 staining in Dox induced HMLE-ZEB1 cells in presence or absence of Ken. […] Top, Representative fluorescence images of whole-mount of lung and second, histology of lung sections. […] I) Total number of metastasis as counted from whole mount of lung in mice implanted with in shControl and shGSK3β cells. n=3-5 for each group. **P<0.01 and ***P<0.001 as determined by as determined by one-way ANOVA with Dunnet's multiple comparison test. All data are presented as mean+/−SEM. *P<0.05, **P<0.01, ***P<0.001 and ****P<0.0001, not significant (ns) as determined by unpaired two-tailed t-test unless otherwise stated. […]

Compound | DMSO normalized FF/RL(DMSO = 1) [1] | also measured
CCCCCCCCCCCCCCCCCCOC[C@H](COP(=O)([O-])OCC[N+](C)(C)C)OC [2-O-methyl PAF C-18] | 0.35 | 
CCc1ccc(/C=C2/SC(=S)NC2=O)cc1 [10058-F4] | 0.5631 | 
O=C(CCCCCCNC(=O)c1cnc(N(c2ccccc2)c2ccccc2)nc1)NO [ACY-1215, ricolinostat] |  | lung metastatic lesions ([2]; ACY-1215 50 mg/kg i.p. + Dox vs Dox-fed mice, 10 weeks after doxycycline): significantly reduced lung metastatic lesions; metastatic lesions in the lungs, shControl group ([2]; shControl cells, Dox induction, ACY-1215 treatment): reduced; metastatic lesions in the lungs, shGSK3β group ([2]; shGSK3β cells, ACY-1215 treatment, compared to Dox-fed shControl mice): reduced metastatic lesions most dramatically; tumor burden ([2]; shGSK3β group treated with ACY-1215 vs Dox-fed shControl): non-significant changes in tumor burden; EMT activation in primary tumors (higher HDAC6 and Fibronectin, low E-Cadherin) ([2]; tumors of ACY-1215+Dox mice vs Dox-fed mice): strikingly absent
O=c1cc(-c2ccc(O)cc2)oc2cc(O)cc(O)c12 [Apigenin] | 0.5787 | 
Nc1ccc(-c2ccc3ccccc3n2)cc1 [BF-170 hydrochloride] | 0.5174 | 
CC(C)(C)OC(=O)Nc1ccc(-c2cc(C(=O)NCCCCCCC(=O)NO)no2)cc1 [CAY 10603] | 0.33 | epithelial morphology and CD44 expression (FACS) [3]: retained epithelial morphology along with the block in gain of CD44 expression to some extent; inhibition of TWIST-driven EMT (retention of E-cadherin, no gain of mesenchymal markers) ([3]; Cay10603 10 nM, protein expression): able to inhibit EMT; acquisition of migration ability, wound-healing assay [4]: blocked the acquisition of migration ability
Cc1cc(O)c2c(c1)C(=O)c1cc(O)cc(O)c1C2=O [Emodin] | 0.6268 | 
O=C1Cc2c([nH]c3ccc(Br)cc23)-c2ccccc2N1 [Kenpaullone] | 0.8715 | inhibition of ZEB1-induced EMT (retention of epithelial morphology) [5]: able to inhibit ZEB1-induced EMT
COc1cccc(-c2cc(=O)c3ccccc3o2)c1N [PD 98,059] | 0.4592 | 
Oc1cc(O)cc(/C=C/c2ccc(O)c(O)c2)c1 [Piceatannol] | 0.6253 | 
Cc1ccc(C(=O)Cn2c3c(sc2=N)CCCC3)cc1 [Pifithrin-α] | 0.348 | 
O=c1c2ccccc2nc2n1CCc1c-2[nH]c2ccccc12 [Rutaecarpine] | 0.5597 | 
COc1ccc(/C=C/C(=O)Nc2ccccc2C(=O)O)cc1OC [Tranilast] | 0.4527 | 

Reference: patent US20260108514A1, “METHOD OF INHIBITING EPITHELIAL-MESENCHYMAL TRANSITION AND CANCER METASTASIS” (Agency for Science, Technology and Research, priority 2022, published 2026)
